One compound from paper PMC5926067 (Japanese Journal of Cancer Research : Gann, 1999) can be followed below.

What is called IC50 is the point on the concentration scale where inhibition reaches its midpoint. Lower therefore signals higher potency.

What all share (format): biochemical
One test concerns the target stromelysin (Mus musculus, UniProt P28862). Nature of the test: fluorescence-labeled casein degradation assay, partially purified enzyme.
For the next test, the target named is T1, gelatinase A (MMP-2) (Homo sapiens, UniProt P08253).
T1 sequence (P08253 110-660): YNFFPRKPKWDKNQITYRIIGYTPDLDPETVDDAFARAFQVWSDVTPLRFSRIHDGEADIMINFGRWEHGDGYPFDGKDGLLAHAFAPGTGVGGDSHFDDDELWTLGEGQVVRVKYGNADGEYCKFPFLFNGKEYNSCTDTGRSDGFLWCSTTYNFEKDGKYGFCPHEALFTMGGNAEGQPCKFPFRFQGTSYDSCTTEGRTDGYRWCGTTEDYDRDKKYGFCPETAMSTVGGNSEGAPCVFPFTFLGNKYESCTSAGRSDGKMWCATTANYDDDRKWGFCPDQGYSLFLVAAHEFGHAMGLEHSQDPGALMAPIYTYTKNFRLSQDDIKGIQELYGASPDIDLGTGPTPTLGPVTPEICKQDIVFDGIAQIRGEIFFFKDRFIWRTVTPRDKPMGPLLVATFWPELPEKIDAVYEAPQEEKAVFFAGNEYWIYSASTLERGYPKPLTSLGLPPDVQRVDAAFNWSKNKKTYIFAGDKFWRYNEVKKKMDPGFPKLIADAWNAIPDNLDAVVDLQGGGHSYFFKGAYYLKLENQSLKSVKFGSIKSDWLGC
Nature of the test: fluorescence-labeled gelatin degradation assay, partially purified enzyme.

The target in another test is gelatinase B (MMP-9) (Homo sapiens, UniProt P14780). Described as above.
In another test the target is T2, interstitial collagenase (Homo sapiens, UniProt P03956).
T2 sequence (P03956 100-469): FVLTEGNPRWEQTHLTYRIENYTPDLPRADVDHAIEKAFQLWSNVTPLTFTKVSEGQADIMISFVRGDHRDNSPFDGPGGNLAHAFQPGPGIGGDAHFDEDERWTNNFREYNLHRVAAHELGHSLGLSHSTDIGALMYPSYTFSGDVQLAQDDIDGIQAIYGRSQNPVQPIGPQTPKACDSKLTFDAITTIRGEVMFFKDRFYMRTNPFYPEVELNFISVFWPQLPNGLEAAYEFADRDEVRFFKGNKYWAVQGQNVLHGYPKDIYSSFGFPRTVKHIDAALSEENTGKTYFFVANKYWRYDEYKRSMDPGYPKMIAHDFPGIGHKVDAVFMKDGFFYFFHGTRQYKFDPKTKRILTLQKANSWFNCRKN
In words: fluorescence-labeled collagen degradation assay, partially purified enzyme.

Sequence of gelatinase B (MMP-9) (P14780 107-707): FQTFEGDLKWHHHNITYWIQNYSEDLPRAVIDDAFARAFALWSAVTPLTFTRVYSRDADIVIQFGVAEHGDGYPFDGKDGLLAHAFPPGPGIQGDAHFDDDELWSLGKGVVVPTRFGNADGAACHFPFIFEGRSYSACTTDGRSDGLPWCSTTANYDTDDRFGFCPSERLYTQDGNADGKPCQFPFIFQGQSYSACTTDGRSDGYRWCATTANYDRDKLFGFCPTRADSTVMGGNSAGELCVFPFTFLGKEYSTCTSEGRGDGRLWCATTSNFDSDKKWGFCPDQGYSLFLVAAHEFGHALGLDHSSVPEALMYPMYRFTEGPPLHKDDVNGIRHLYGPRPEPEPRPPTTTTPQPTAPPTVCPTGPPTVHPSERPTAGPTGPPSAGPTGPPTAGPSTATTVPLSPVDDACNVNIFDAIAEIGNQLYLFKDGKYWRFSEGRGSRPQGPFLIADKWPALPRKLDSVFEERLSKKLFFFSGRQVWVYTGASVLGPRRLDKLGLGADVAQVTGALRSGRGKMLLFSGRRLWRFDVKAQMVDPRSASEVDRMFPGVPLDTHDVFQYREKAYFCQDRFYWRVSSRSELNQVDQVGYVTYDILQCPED
Sequence of stromelysin (P28862 100-477): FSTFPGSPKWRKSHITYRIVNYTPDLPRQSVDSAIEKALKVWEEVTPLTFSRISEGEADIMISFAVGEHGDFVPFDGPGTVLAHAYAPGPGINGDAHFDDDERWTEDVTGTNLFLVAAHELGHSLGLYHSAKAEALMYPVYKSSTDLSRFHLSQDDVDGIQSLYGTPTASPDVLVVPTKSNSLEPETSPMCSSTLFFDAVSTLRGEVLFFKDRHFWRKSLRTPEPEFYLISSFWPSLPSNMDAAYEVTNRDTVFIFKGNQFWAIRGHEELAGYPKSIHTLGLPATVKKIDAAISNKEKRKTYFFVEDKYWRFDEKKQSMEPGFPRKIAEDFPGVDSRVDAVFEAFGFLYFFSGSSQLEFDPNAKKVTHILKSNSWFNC

In the case of `CON1C(=O)[C@@H](NC(=O)[C@@H](CC(=O)NO)CC(C)C)Cc2ccccc21` [OPB-3206, 3S-[4-(N-hydroxyamino)-2R-isobutylsuccinyl]amino-1-methoxy-3,4-dihydrocarbostyril], the half-inhibitory concentration (IC50) against stromelysin worked out at 2000 nM; on gelatinase A (MMP-2) it was 5000 nM; against gelatinase B (MMP-9), 500 nM; at interstitial collagenase, 700 nM.
